Test results published in patent US20260285875A1, “INHIBITORS OF PARG” (858 Therapeutics, Inc., priority 2023, published 2026).
pIC50: −log10 of the molar value.

What follows are molecules tested against T1, cellular PARG (Homo sapiens, UniProt Q86W56) (assay: Nuclear PAR accumulation assay (immunofluorescence high-content imaging, MMS-treated HeLa cells)). Settings: 1 hour compound then MMS 50 μg/mL for an additional hour.
T1 construct: endogenous in cells; host or cells: HeLa
Format: cell-based
In short: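 HeLa cells pretreated with compound for 1 h at 37° C, then given 50 μg/mL MMS for another hour. After methanol fixation, PAR was immunostained with DAPI nuclear counterstain; per-nucleus intensity and percent PAR-positive cells were imaged at 20× (≥1,000 cells/well). IC50 from four-parameter logistic fit.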

T1 sequence (Q86W56 whole entry): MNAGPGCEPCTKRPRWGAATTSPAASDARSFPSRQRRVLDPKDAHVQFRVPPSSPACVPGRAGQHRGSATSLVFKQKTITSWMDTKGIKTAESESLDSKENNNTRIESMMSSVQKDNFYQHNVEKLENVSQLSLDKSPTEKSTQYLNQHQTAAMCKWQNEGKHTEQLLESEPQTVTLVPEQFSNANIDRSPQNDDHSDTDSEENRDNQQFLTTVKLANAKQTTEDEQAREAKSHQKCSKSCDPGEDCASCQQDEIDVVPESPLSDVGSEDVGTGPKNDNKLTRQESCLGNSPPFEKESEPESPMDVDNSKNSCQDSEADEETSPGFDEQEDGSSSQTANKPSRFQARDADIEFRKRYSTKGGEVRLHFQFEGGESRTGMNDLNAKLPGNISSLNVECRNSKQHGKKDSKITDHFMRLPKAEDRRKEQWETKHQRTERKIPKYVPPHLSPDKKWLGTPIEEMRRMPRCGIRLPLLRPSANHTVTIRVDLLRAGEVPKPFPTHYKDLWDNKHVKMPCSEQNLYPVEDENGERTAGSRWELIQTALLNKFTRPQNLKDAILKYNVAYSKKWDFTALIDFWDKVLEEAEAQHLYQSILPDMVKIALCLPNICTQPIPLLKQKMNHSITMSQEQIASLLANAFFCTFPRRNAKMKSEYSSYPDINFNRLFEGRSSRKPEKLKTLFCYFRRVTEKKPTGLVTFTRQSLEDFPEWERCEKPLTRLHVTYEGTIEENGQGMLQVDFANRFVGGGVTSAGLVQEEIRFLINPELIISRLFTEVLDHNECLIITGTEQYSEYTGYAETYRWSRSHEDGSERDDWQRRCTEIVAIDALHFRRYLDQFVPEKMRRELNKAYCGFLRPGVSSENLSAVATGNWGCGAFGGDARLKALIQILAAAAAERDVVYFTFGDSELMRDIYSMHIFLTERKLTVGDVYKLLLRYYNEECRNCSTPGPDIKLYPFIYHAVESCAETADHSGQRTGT

SMILES | pIC50
CN1C(=O)c2cc(S(=O)(=O)NC3(C)CC3)ccc2N2C1=NC[C@H]2C#Cc1cnn(C)c(=O)c1 [Example 199, (R)-4-methyl-1-((1-methyl-6-oxo-1,6-dihydropyridazin-4-yl)ethynyl)-N-(1-methylcyclopropyl)-5-oxo-1,2,4,5-tetrahydroimidazo[1,2-a]quinazoline-7-sulfonamide] | > 7.00
CC(C)OC[C@@H]1CN=C2N(Cc3cnn(C)c3)C(=O)c3cc(S(=O)(=O)NC4(C)CC4)ccc3N21 [Example 19, (S)-1-(isopropoxymethyl)-4-((1-methyl-1H-pyrazol-4-yl)methyl)-N-(1-methylcyclopropyl)-5-oxo-1,2,4,5-tetrahydroimidazo[1,2-a]quinazoline-7-sulfonamide] | > 7.00
Cc1ccc2ncc(C#C[C@@H]3CN=C4N(C)C(=O)c5cc(S(=O)(=O)NC6(C)CC6)ccc5N43)n2n1 [Example 183, (R)-4-methyl-N-(1-methylcyclopropyl)-1-((6-methylimidazo[1,2-b]pyridazin-3-yl)ethynyl)-5-oxo-1,2,4,5-tetrahydroimidazo[1,2-a]quinazoline-7-sulfonamide] | > 7.00
Cn1cc(CN2C(=O)c3cc(S(=O)(=O)NC4(C)CC4)ccc3N3C2=NC[C@H]3C#CC2(N)CC2)cn1 [Example 124, (R)-1-((1-aminocyclopropyl)ethynyl)-4-((1-methyl-1H-pyrazol-4-yl)methyl)-N-(1-methylcyclopropyl)-5-oxo-1,2,4,5-tetrahydroimidazo[1,2-a]quinazoline-7-sulfonamide] | > 7.00
C[C@@H]1CN=C2N(Cc3cnn(C)c3)C(=O)c3cc(S(=O)(=O)NC4(C)CC4)cc(-c4ccc(F)cn4)c3N21 [Example 6, (R)-9-(5-fluoropyridin-2-yl)-1-methyl-4-((1-methyl-1H-pyrazol-4-yl)methyl)-N-(1-methylcyclopropyl)-5-oxo-1,2,4,5-tetrahydroimidazo[1,2-a]quinazoline-7-sulfonamide] | > 7.00
[2H]C([2H])(c1cnn(C)c1)N1C(=O)c2cc(S(=O)(=O)NC3(C)CC3)ccc2N2C1=NC[C@H]2C#Cc1cccnc1N [Example 250, (R)-1-((2-aminopyridin-3-yl)ethynyl)-4-((1-methyl-1H-pyrazol-4-yl)methyl-d2)-N-(1-methylcyclopropyl)-5-oxo-1,2,4,5-tetrahydroimidazo[1,2-a]quinazoline-7-sulfonamide] | > 7.00
[2H]C([2H])(c1cnn(C)c1)N1C(=O)c2cc(S(=O)(=O)NC3(C)CC3)ccc2N2C1=NC[C@H]2C#Cc1cncc(OC)c1 [Example 269, (R)-1-((5-methoxypyridin-3-yl)ethynyl)-4-((1-methyl-1H-pyrazol-4-yl)methyl-d2)-N-(1-methylcyclopropyl)-5-oxo-1,2,4,5-tetrahydroimidazo[1,2-a]quinazoline-7-sulfonamide] | > 7.00
CN1C(=O)c2cc(S(=O)(=O)NC3(C)CC3)cc(C3=CCN(C(=O)C4CC4)CC3)c2N2CC(C)(C)N=C12 [Example 59, 9-(1-(cyclopropanecarbonyl)-1,2,3,6-tetrahydropyridin-4-yl)-2,2,4-trimethyl-N-(1-methylcyclopropyl)-5-oxo-1,2,4,5-tetrahydroimidazo[1,2-a]quinazoline-7-sulfonamide] | 6.00 to 7.00
Cc1cc(F)ccc1-c1cc(S(=O)(=O)NC2(C)CC2)cc2c1N1CC(C)(C)N=C1N(C)C2=O [Example 61, 9-(4-fluoro-2-methylphenyl)-2,2,4-trimethyl-N-(1-methylcyclopropyl)-5-oxo-1,2,4,5-tetrahydroimidazo[1,2-a]quinazoline-7-sulfonamide] | 6.00 to 7.00
Cn1cc(CN2C(=O)c3cc(S(=O)(=O)NC4(C)CC4)ccc3N3C[C@H](COCc4ccccc4)N=C23)cn1 [Example 154, (R)-2-((benzyloxy)methyl)-4-((1-methyl-1H-pyrazol-4-yl)methyl)-N-(1-methylcyclopropyl)-5-oxo-1,2,4,5-tetrahydroimidazo[1,2-a]quinazoline-7-sulfonamide] | > 7.00
[2H]C([2H])(c1cnn(C)c1)N1C(=O)c2cc(S(=O)(=O)NC3(C)CC3)c(N(C)C)cc2N2C1=N[C@H]1CCC[C@H]12 [Example 214, (7aS,10aR)-2-(dimethylamino)-6-((1-methyl-1H-pyrazol-4-yl)methyl-d2)-N-(1-methylcyclopropyl)-5-oxo-6,7a,8,9,10,10a-hexahydro-5H-cyclopenta[4,5]imidazo[1,2-a]quinazoline-3-sulfonamide] | 5.00 to 6.00
[2H]C([2H])(c1cnn(C)c1)N1C(=O)c2cc(S(=O)(=O)NC3(C)CC3)c(F)cc2N2CC(C)(C)N=C21 [Example 274, 8-fluoro-2,2-dimethyl-4-((1-methyl-1H-pyrazol-4-yl)methyl-d2)-N-(1-methylcyclopropyl)-5-oxo-1,2,4,5-tetrahydroimidazo[1,2-a]quinazoline-7-sulfonamide] | > 7.00
Cc1cc([C@@H]2CN=C3N(Cc4cnn(C)c4)C(=O)c4cc(S(=O)(=O)NC5(C)CC5)ccc4N32)on1 [Example 107, (S)-4-((1-methyl-1H-pyrazol-4-yl)methyl)-N-(1-methylcyclopropyl)-1-(3-methylisoxazol-5-yl)-5-oxo-1,2,4,5-tetrahydroimidazo[1,2-a]quinazoline-7-sulfonamide] | > 7.00
CN1C(=O)c2cc(S(=O)(=O)NC3(C)CC3)ccc2N2C1=NC[C@H]2C#Cc1c2ccccc2nn1C [Example 174, (R)-4-methyl-1-((2-methyl-2H-indazol-3-yl)ethynyl)-N-(1-methylcyclopropyl)-5-oxo-1,2,4,5-tetrahydroimidazo[1,2-a]quinazoline-7-sulfonamide] | > 7.00
Cc1cc(F)ccc1-c1cc(S(=O)(=O)NC2(C)CC2)cc2c1N1C(=NC[C@H]1C)N(Cc1cnn(C)c1)C2=O [Example 32, (R)-9-(4-fluoro-2-methylphenyl)-1-methyl-4-((1-methyl-1H-pyrazol-4-yl)methyl)-N-(1-methylcyclopropyl)-5-oxo-1,2,4,5-tetrahydroimidazo[1,2-a]quinazoline-7-sulfonamide] | > 7.00
C[C@@H]1C[C@@H](C)N2C(=N1)N(Cc1cnn(C)c1)C(=O)c1cc(S(=O)(=O)NC3(C)CC3)ccc12 [Example 236, (1R,3R)-1,3-dimethyl-5-((1-methyl-1H-pyrazol-4-yl)methyl)-N-(1-methylcyclopropyl)-6-oxo-2,3,5,6-tetrahydro-1H-pyrimido[1,2-a]quinazoline-8-sulfonamide] | > 7.00
[2H]C([2H])(c1cnn(C)c1)N1C(=O)c2cc(S(=O)(=O)NC3(C)CC3)ccc2N2C1=NC[C@H]2COCCN(C)C [Example 114, (S)-1-((2-(dimethylamino)ethoxy)methyl) -4-((1-methyl-1H-pyrazol-4-yl)methyl-d2)-N-(1-methylcyclopropyl)-5-oxo-1,2,4,5-tetrahydroimidazo[1,2-a]quinazoline-7-sulfonamide] | 6.00 to 7.00
CNC(=O)c1ccc(-c2cc(S(=O)(=O)NC3(C)CC3)cc3c2N2CC(C)(C)N=C2N(C)C3=O)cn1 [Example 58, N-methyl-5-(2,2,4-trimethyl-7-(N-(1-methylcyclopropyl)sulfamoyl)-5-oxo-1,2,4,5-tetrahydroimidazo[1,2-a]quinazolin-9-yl)picolinamide] | 6.00 to 7.00
Cn1cc(CN2C(=O)c3cc(S(=O)(=O)NC4(C)CC4)ccc3N3C2=NC[C@H]3C#Cc2ccnn2C)cn1 [Example 165, (R)-4-((1-methyl-1H-pyrazol-4-yl)methyl)-1-((1-methyl-1H-pyrazol-5-yl)ethynyl)-N-(1-methylcyclopropyl)-5-oxo-1,2,4,5-tetrahydroimidazo[1,2-a]quinazoline-7-sulfonamide] | > 7.00
CN1C(=O)c2cc(S(=O)(=O)NC3(C)CC3)ccc2N2C1=NC[C@H]2C#Cc1cnc2ccc(C(F)(F)F)nn12 [Example 201, (R)-4-methyl-N-(1-methylcyclopropyl)-5-oxo-1-((6-(trifluoromethyl)imidazo[1,2-b]pyridazin-3-yl)ethynyl)-1,2,4,5-tetrahydroimidazo[1,2-a]quinazoline-7-sulfonamide] | > 7.00
[2H]C([2H])(c1cnn(C)c1)N1C(=O)c2cc(S(=O)(=O)NC3(C)CC3)cc(Br)c2N2C1=NC[C@H]2C#CC1CC1 [Example 15, (R)-9-bromo-1-(cyclopropylethynyl)-4-((1-methyl-1H-pyrazol-4-yl)methyl-d2)-N-(1-methylcyclopropyl)-5-oxo-1,2,4,5-tetrahydroimidazo[1,2-a]quinazoline-7-sulfonamide] | > 7.00
CC#C[C@@H]1CN=C2N(C)C(=O)c3cc(S(=O)(=O)NC4(C)CC4)cc(Br)c3N21 [Example 42, (R)-9-bromo-4-methyl-N-(1-methylcyclopropyl)-5-oxo-1-(prop-1-yn-1-yl)-1,2,4,5-tetrahydroimidazo[1,2-a]quinazoline-7-sulfonamide] | > 7.00
CN1C(=O)c2cc(S(=O)(=O)NC3(C)CC3)ccc2N2C1=NCC2C#Cc1ccc(C#N)nc1 (stereo not shown) [Example 202, 1-((6-cyanopyridin-3-yl)ethynyl)-4-methyl-N-(1-methylcyclopropyl)-5-oxo-1,2,4,5-tetrahydroimidazo[1,2-a]quinazoline-7-sulfonamide] | > 7.00
CN(C)C1(C#C[C@@H]2CN=C3N(CC4(F)CC4)C(=O)c4cc(S(=O)(=O)NC5(C)CC5)ccc4N32)CC1 [Example 152, (R)-1-((1-(dimethylamino)cyclopropyl)ethynyl)-4-((1-fluorocyclopropyl)methyl)-N-(1-methylcyclopropyl)-5-oxo-1,2,4,5-tetrahydroimidazo[1,2-a]quinazoline-7-sulfonamide] | > 7.00
[2H]C([2H])(c1cnn(C)c1)N1C(=O)c2cc(S(=O)(=O)NC3(C)CC3)cc(Cl)c2N2C1=NC[C@H]2C#C [Example 111, (R)-9-chloro-1-ethynyl-4-((1-methyl-1H-pyrazol-4-yl)methyl-d2)-N-(1-methylcyclopropyl)-5-oxo-1,2,4,5-tetrahydroimidazo[1,2-a]quinazoline-7-sulfonamide] | > 7.00
